Consider 9 compounds from patent US10294234B2, “HIV inhibitor compounds” (priority 2017, dated 2019).

One assay relates to HIV-1 (IIIB) in MT-4 cells. Briefly: MT-4 HIV assay. The settings on record: Human immunodeficiency virus 1, MT4, 120 h. Type of assay: cell-based. As for the experimental part:
Compounds were tested in a high-throughput 384-well assay format for their ability to inhibit the replication of HIV-1 (IIIB) in MT-4 cells. Compounds were serially diluted (1:3) in DMSO on 384-well polypropylene plates and further diluted 200-fold into complete RPMI media (10% FBS, 1% P/S) using the Biotek Micro Flow and Agilent ECHO acoustic dispenser. Each plate contained up to 8 test compounds, with negative (No Drug Control) and 5 uM AZT positive controls. MT-4 cells were pre-infected with 10 uL of either RPMI (mock-infected) or a fresh 1:250 dilution of an HIV-1 (IIIB) concentrated virus stock. Infected and uninfected MT-4 cells were further diluted in complete RPMI media and added to each plate using a Micro Flow dispenser. After 5 days incubation in a humidified and temperature controlled incubator (37° C.), Cell Titer Glo (Promega) was added to the assay plates to quantify the amount of luciferase.
By EC50 is commonly meant the concentration that produces a half-maximal response. `COC(=O)N[C@H](C(=O)N[C@@H](Cc1ccc(C#Cc2ccc(N3C[C@H]4C[C@@H]3CN4C3COC3)nc2)cc1)[C@@H](O)CN(Cc1c(F)cc(-c2nnc(C3CC3)s2)cc1F)NC(=O)[C@@H](NC(=O)OC)C(C)(C)C(F)(F)F)C(C)(C)C(F)(F)F` [Example 27, Methyl ((5S,8S,9S,14S)-11-(4-(5-cyclopropyl-1,3,4-thiadiazol-2-yl)-2,6-difluorobenzyl)-16,16,16-trifluoro-9-hydroxy-15,15-dimethyl-8-(4-((6-((1R,4R)-5-(oxetan-3-yl)-2,5-diazabicyclo[2.2.1]heptan-2-yl)pyridin-3-yl)ethynyl)benzyl)-3,6,13-trioxo-5-(1,1,1-trifluoro-2-methylpropan-2-yl)-2-oxa-4,7,11,12-tetraazahexadecan-14-yl)carbamate]: the EC50 came out at 3.5 nM.

Staying with this assay, now noted: Human immunodeficiency virus 1, MT4, 120 h; HIV-1 (IIIB), MT-4 cells, 5 days, Cell Titer Glo; read-out: EC50.
For `COC(=O)N[C@H](C(=O)N[C@@H](Cc1ccc(C#Cc2ccc(N3C[C@H]4C[C@@H]3CN4C3COC3)nc2)cc1)[C@@H](O)CN(Cc1ccc(-c2ccn(C3CC3)n2)cc1)NC(=O)[C@@H](NC(=O)OC)C(C)(C)C(F)(F)F)C(C)(C)C(F)(F)F` [Example 28, Methyl ((5S,8S,9S,14S)-11-(4-(1-cyclopropyl-1H-pyrazol-3-yl)benzyl)-16,16,16-trifluoro-9-hydroxy-15,15-dimethyl-8-(4-((6-((1R,4R)-5-(oxetan-3-yl)-2,5-diazabicyclo[2.2.1]heptan-2-yl)pyridin-3-yl)ethynyl)benzyl)-3,6,13-trioxo-5-(1,1,1-trifluoro-2-methylpropan-2-yl)-2-oxa-4,7,11,12-tetraazahexadecan-14-yl)carbamate], the EC50 turned out to be 4.56 nM.

Take `COC(=O)N[C@H](C(=O)N[C@@H](Cc1ccc(C#Cc2ccc(N3C[C@H]4C[C@@H]3CN4C3COC3)nc2)cc1)[C@@H](O)CN(Cc1ccc(-c2ccn(C(F)F)n2)cc1)NC(=O)[C@@H](NC(=O)OC)C(C)(C)C(F)(F)F)C(C)(C)C(F)(F)F` [Example 29, Methyl ((5S,8S,9S,14S)-11-(4-(1-(difluoromethyl)-1H-pyrazol-3-yl)benzyl)-16,16,16-trifluoro-9-hydroxy-15,15-dimethyl-8-(4-((6-((1R,4R)-5-(oxetan-3-yl)-2,5-diazabicyclo [2.2.1]heptan-2-yl)pyridin-3-yl)ethynyl)benzyl)-3,6,13-trioxo-5-(1,1,1-trifluoro-2-methylpropan-2-yl)-2-oxa-4,7,11,12-tetraazahexadecan-14-yl)carbamate]: the EC50 was found to be 4.02 nM.

On to `COC(=O)N[C@H](C(=O)N[C@@H](Cc1ccc(C#Cc2cnc(N3C[C@H]4C[C@@H]3CN4C3COC3)nc2)cc1)[C@@H](O)CN(Cc1ccc(-c2ccn(C3CC3)n2)cc1)NC(=O)[C@@H](NC(=O)OC)C(C)(C)C(F)(F)F)C(C)(C)C(F)(F)F` [Example 30, methyl ((5S,8S,9S,14S)-11-(4-(1-cyclopropyl-1H-pyrazol-3-yl)benzyl)-16,16,16-trifluoro-9-hydroxy-15,15-dimethyl-8-(4-((2-((1R,4R)-5-(oxetan-3-yl)-2,5-diazabicyclo[2.2.1]heptan-2-yl)pyrimidin-5-yl)ethynyl)benzyl)-3,6,13-trioxo-5-(1,1,1-trifluoro-2-methylpropan-2-yl)-2-oxa-4,7,11,12-tetraazahexadecan-14-yl)carbamate], for which the EC50 stood at 4.44 nM.

In the case of `COC(=O)N[C@H](C(=O)N[C@@H](Cc1ccc(C#Cc2cnc(N3CC4CCC(C3)N4C3COC3)nc2)cc1)[C@@H](O)CN(Cc1ccc(-c2ccn(C3CC3)n2)cc1)NC(=O)[C@@H](NC(=O)OC)C(C)(C)C(F)(F)F)C(C)(C)C(F)(F)F` [Example 33, Methyl ((5S,8S,9S,14S)-11-(4-(1-cyclopropyl-1H-pyrazol-3-yl)benzyl)-16,16,16-trifluoro-9-hydroxy-15,15-dimethyl-8-(4-((2-(8-(oxetan-3-yl)-3,8-diazabicyclo [3.2.1]octan-3-yl)pyrimidin-5-yl)ethynyl)benzyl)-3,6,13-trioxo-5-(1,1,1-trifluoro-2-methylpropan-2-yl)-2-oxa-4,7,11,12-tetraazahexadecan-14-yl)carbamate], the EC50 was 4.71 nM.

Turning to `COC(=O)N[C@H](C(=O)N[C@@H](Cc1ccc(C#Cc2ccc(N3CC4CCC(C3)N4C3COC3)nc2)cc1)[C@@H](O)CN(Cc1ccc(-c2ccn(C3CC3)n2)cc1)NC(=O)[C@@H](NC(=O)OC)C(C)(C)C(F)(F)F)C(C)(C)C(F)(F)F` [Example 34, Methyl ((5S,8S,9S,14S)-11-(4-(1-cyclopropyl-1H-pyrazol-3-yl)benzyl)-16,16,16-trifluoro-9-hydroxy-15,15-dimethyl-8-(4-((6-(8-(oxetan-3-yl)-3,8-diazabicyclo [3.2.1]octan-3-yl)pyridin-3-yl)ethynyl)benzyl)-3,6,13-trioxo-5-(1,1,1-trifluoro-2-methylpropan-2-yl)-2-oxa-4,7,11,12-tetraazahexadecan-14-yl)carbamate], the 50% effective concentration (EC50) came to 5.26 nM.

On to `COC(=O)N[C@H](C(=O)N[C@@H](Cc1ccc(C#Cc2ccc(N3CC4CC(C3)N4C3COC3)nc2)cc1)[C@@H](O)CN(Cc1c(F)cc(-c2ccc(N3CC4CC(C3)N4C3COC3)nc2)cc1F)NC(=O)[C@@H](NC(=O)OC)C(C)(C)C(F)(F)F)C(C)(C)C(F)(F)F` [Example 38, Methyl ((5S,8S,9S,14S)-11-(2,6-difluoro-4-(6-(6-(oxetan-3-yl)-3,6-diazabicyclo[3.1.1]heptan-3-yl)pyridin-3-yl)benzyl)-16,16,16-trifluoro-9-hydroxy-15,15-dimethyl-8-(4-((6-(6-(oxetan-3-yl)-3,6-diazabicyclo[3.1.1]heptan-3-yl)pyridin-3-yl)ethynyl)benzyl)-3,6,13-trioxo-5-(1,1,1-trifluoro-2-methylpropan-2-yl)-2-oxa-4,7,11,12-tetraazahexadecan-14-yl)carbamate], for which the EC50 came to 6.13 nM.

As for `COC(=O)N[C@H](C(=O)N[C@@H](Cc1ccc(C#Cc2ccc(N3CC4CC(C3)N4C3COC3)nc2)cc1)[C@@H](O)CN(Cc1c(F)cc(-c2ccn(CC(F)F)n2)cc1F)NC(=O)[C@@H](NC(=O)OC)C(C)(C)C(F)(F)F)C(C)(C)C(F)(F)F` [Example 41, Methyl ((5S,8S,9S,14S)-11-(4-(1-(2,2-difluoroethyl)-1H-pyrazol-3-yl)-2,6-difluorobenzyl)-16,16,16-trifluoro-9-hydroxy-15,15-dimethyl-8-(4-((6-(6-(oxetan-3-yl)-3,6-diazabicyclo[3.1.1]heptan-3-yl)pyridin-3-yl)ethynyl)benzyl)-3,6,13-trioxo-5-(1,1,1-trifluoro-2-methylpropan-2-yl)-2-oxa-4,7,11,12-tetraazahexadecan-14-yl)carbamate], the EC50 worked out at 3.58 nM.

Take `COC(=O)N[C@H](C(=O)N[C@@H](Cc1ccc(C#Cc2cnc(N3CC4CC(C3)N4C3COC3)nc2)cc1)[C@@H](O)CN(Cc1c(F)cc(-c2ccn(C(F)F)n2)cc1F)NC(=O)[C@@H](NC(=O)OC)C(C)(C)C(F)(F)F)C(C)(C)C(F)(F)F` [Example 42, Methyl ((5S,8S,9S,14S)-11-(4-(1-(difluoromethyl)-1H-pyrazol-3-yl)-2,6-difluorobenzyl)-16,16,16-trifluoro-9-hydroxy-15,15-dimethyl-8-(4-((2-(6-(oxetan-3-yl)-3,6-diazabicyclo[3.1.1]heptan-3-yl)pyrimidin-5-yl)ethynyl)benzyl)-3,6,13-trioxo-5-(1,1,1-trifluoro-2-methylpropan-2-yl)-2-oxa-4,7,11,12-tetraazahexadecan-14-yl)carbamate]: the EC50 was determined as 3.18 nM.
